Test results reported in paper PMC4632126, “High specific selectivity and Membrane-Active Mechanism of the synthetic centrosymmetric α-helical peptides with Gly-Gly pairs” (Scientific Reports, 2015).
In brackets after ≈: the same amount, converted by molar mass. Read-outs that look alike come from different tables or passages of the source. Where no end group is shown, it is not given here.

Columns and labels:
[1] = test system: 3 gram-negative strains tested; assay: Geometric mean of MBCs and therapeutic index, gram-negative strains; type: cell-based; conditions: >128 counted as 256 μM; for TI (therapeutic index), gram-negative: MHC/GM for 3 gram-negative strains
Procedure: (§1) In short, 50 μL peptide solutions were pipetted into microtiter plates at various concentrations ranging from 1 to 128 μM. Freshly grown bacteria were added to the each well in a density of 0.5–1 × 10^6 CFUmL^−1. Microtiter plated was incubated at 37 °C for 5 h. Fifty microliters of each incubation mixture was further serially diluted (up to 10^−3 of the initial bacterial concentration), transferred on agar plates and incubated overnight. On the following day, the number of colonies was evaluated and the initial CFU/well retrospectively calculated. The minimum bactericidal concentrations (μM) were determined as the lowest concentration of the peptides that prevented more than 99.9% bacteria growth.
(§2) The therapeutic index (TI) is calculated by the ration of the minimum hemolytic concentration (MHC) to the geometric mean of the MBC (GM) to evaluate cell selectivity of peptides.

[2] = test system: E. coli ATCC 25922; assay: Flow cytometry, membrane integrity by PI staining; type: cell-based, Escherichia coli; conditions: peptide at 1 × MBC, PI 10 μg mL^−1, 30 min at 4 °C
Procedure: The membrane damage was determined by flow cytometry. Briefly, E. coli ATCC 25922 was grown to mid-log phase in MHB at 37 °C, harvested by centrifugation at 1,000 × g for 10 min, washed thrice with PBS and diluted to 10^5 CFU mL^−1 in the same buffer. The peptides at the concentrations of 1 × MBCs were incubated with the bacterial suspension at a fixed PI concentration of 10 μg mL^−1 for 30 min at 4 °C, and followed by the removal of the unbound dye through washing with an excess of PBS. A Fluorescence Activated Cell Sorter (FACS) flow cytometer (Becton–Dickinson, USA) was used to obtain the data with a laser excitation wavelength of 488 nm.

[3] = test system: E. coli ATCC 25922; type: cell-based, Escherichia coli
Procedure: as §1, with “Minimal bactericidal concentrations (MBCs) were measured using the method which has been adopted from National Committee for Clinical Laboratory Standards (NCCLS), with modifications. In” for “In”

[4] = test system: E. coli UB1005; type: cell-based, Escherichia coli
Procedure: as §1, with “Minimal bactericidal concentrations (MBCs) were measured using the method which has been adopted from National Committee for Clinical Laboratory Standards (NCCLS), with modifications. In” for “In”

[5] = test system: S. typhimurium ATCC14028; type: cell-based, Salmonella typhimurium
Procedure: as §1, with “Minimal bactericidal concentrations (MBCs) were measured using the method which has been adopted from National Committee for Clinical Laboratory Standards (NCCLS), with modifications. In” for “In”

[6] = test system: all of the 6 strains tested; assay: Geometric mean of MBCs and therapeutic index, all strains; type: cell-based; conditions: >128 counted as 256 μM; for TI (therapeutic index), all strains: MHC/GM for all 6 strains
Procedure: as §1, §2

[7] = test system: S. aureus ATCC29213; type: cell-based, Staphylococcus aureus
Procedure: as §1, with “Minimal bactericidal concentrations (MBCs) were measured using the method which has been adopted from National Committee for Clinical Laboratory Standards (NCCLS), with modifications. In” for “In”

[8] = test system: 3 gram-positive strains tested; conditions: >128 counted as 256 μM; for TI (therapeutic index), gram-positive: MHC/GM for 3 gram-positive strains
Procedure: as §1, §2

[9] = test system: S. epidermidis ATCC12228; type: cell-based, Staphylococcus epidermidis; conditions: ATCC12228, 5 h
Procedure: In short, 50 μL peptide solutions were pipetted into microtiter plates at various concentrations ranging from 1 to 128 μM. Freshly grown bacteria were added to the each well in a density of 0.5–1 × 10^6 CFUmL^−1. Microtiter plated was incubated at 37 °C for 5 h. Fifty microliters of each incubation mixture was further serially diluted (up to 10^−3 of the initial bacterial concentration), transferred on agar plates and incubated overnight. On the following day, the number of colonies was evaluated and the initial CFU/well retrospectively calculated. The minimum bactericidal concentrations (μM) were determined as the lowest concentration of the peptides that prevented more than 99.9% bacteria growth. Each test was reproduced at least 3 times using 6 replicates.

[10] = test system: human red blood cells (hRBCs); conditions: red cells of human, 1 h
Procedure: (§3) The hemolytic activity of each peptide was evaluated using a modified method, as described previously[21][22]. […] Then, the collected hRBCs were washed three times with PBS (pH 7.2), centrifuged at 1000 × g for 5 min, and resuspended in PBS (final concentration, approximately 1%). Next, 50 μL of the hRBC suspension was placed into a 96-well cell culture plate with 50 μL of test peptide solution in PBS at different concentrations, and the mixture was incubated at 37 °C for 1 h. After incubation, the plate was centrifuged at 1000 × g for 5 min, the supernatant was transferred to a new 96-well cell culture plate, and the release of hemoglobin was measured by monitoring optical density (OD) at 576 nm. Untreated hRBCs suspension was used as a negative control, and the hRBCs treated with 0.1% Triton X-100 were employed as positive controls. Each test was reproduced at least 3 times using 6 replicates. Percent hemolysis was calculated using the following equation:

[11] = test system: E. coli ATCC 25922; type: cell-based, Escherichia coli; remark: listed apart in the source
Procedure: as §1, with “Minimal bactericidal concentrations (MBCs)” for “In short, 50 μL peptide solutions”, “measured using the method which has been adopted” for “pipetted into microtiter plates at various concentrations ranging”, “National Committee for Clinical Laboratory Standards (NCCLS), with modifications. […]” for “1 to 128 μM.”, “growth. […] The salt sensitivity of the peptides was measured using a modified method, as described previously. […] The subsequent steps were consistent with the MBCs determination method.” for “growth.”

[12] = test system: Methicillin-resistant S. aureus ATCC 43300; conditions: S. aureus 43300 (methicillin-resistant); lowest concentration preventing more than 99.9% growth; 37 °C, 5 h; representative of three trials
Procedure: as §1

[13] = test system: human red blood cells (hRBCs); assay: Hemolytic activity; conditions: concentration causing 5% hemolysis of human red blood cells; about 1% hRBC in PBS, 37 °C, 1 h, OD 576 nm
Procedure: as §3

[14] = test system: E. coli ATCC 25922; type: cell-based, Escherichia coli; conditions: ATCC 25922, 24 h
Procedure: The checkerboard titration method is commonly used to evaluate the synergy of different antibacterial combinations. First, 2-fold serial dilutions of the antibiotics and antimicrobial peptides were prepared. Subsequently, 50 μL each of different concentrations of antibiotics and of antimicrobial peptides was mixed and added into 100 μL of bacterial solution (containing approximately 0.5–1 × 10^6 CFU mL^−1) in each well of a 96-well plate. The plates were then incubated at 37 °C for 24 h. The subsequent steps were consistent with the MBCs determination method. The fractional inhibitory concentration (FIC) index (FICI) was calculated as follows: An FICI < 0.5 is considered to indicate synergy; 0.5 < FICI < 1.0 is considered additive; 1.0 < FICI < 4.0 is considered indifferent; and an FICI > 4.0 is considered antagonism.

[15] = test system: S. aureus ATCC 29213; type: cell-based, Staphylococcus aureus; conditions: ATCC 29213, 5 h
Procedure: as §1, with “Minimal bactericidal concentrations (MBCs)” for “In short, 50 μL peptide solutions”, “measured using the method which has been adopted” for “pipetted into microtiter plates at various concentrations ranging”, “National Committee for Clinical Laboratory Standards (NCCLS), with modifications. […]” for “1 to 128 μM.”, “growth. […] The salt sensitivity of the peptides was measured using a modified method, as described previously. […] The subsequent steps were consistent with the MBCs determination method.” for “growth.”

[16] = biological target: the molecule itself; assay: FRET or BRET; FAM-labeled GG3 (donor) with TAMRA-labeled GG3 (acceptor) and unlabeled GG3, in POPG or POPC/POPG (3:1) vesicles; total peptide and FAM-peptide concentrations kept constant, mole fraction of TAMRA-peptide varied; 10 mM Tris, 150 mM NaCl, 0.1 mM EDTA, pH 7.4; excitation 492 nm; membrane-bound state

Molecule: CC[C@H](C)[C@H](NC(=O)CN)C(=O)NCC(=O)N[C@@H](C)C(=O)N[C@H](C(=O)N[C@@H](CC(C)C)C(=O)N[C@@H](CCCCN)C(=O)N[C@H](C(=O)N[C@@H](CC(C)C)C(=O)N[C@H](C(=O)N[C@H](C(=O)NCC(=O)N[C@@H](CC(C)C)C(=O)N1CCC[C@H]1C(=O)N[C@@H](C)C(=O)N[C@@H](CC(C)C)C(=O)N[C@H](C(=O)N[C@@H](CO)C(=O)N[C@@H](Cc1c[nH]c2ccccc12)C(=O)N[C@H](C(=O)N[C@@H](CCCCN)C(=O)N[C@@H](CCCNC(=N)N)C(=O)N[C@@H](CCCCN)C(=O)N[C@@H](CCCNC(=N)N)C(=O)N[C@@H](CCC(N)=O)C(=O)N[C@@H](CCC(N)=O)C(N)=O)[C@@H](C)CC)[C@@H](C)CC)[C@@H](C)O)[C@@H](C)O)C(C)C)C(C)C [Melittin, reference compound]
- GM (geometric mean of MBCs), Gram (−) ([1]; 3 gram-negative strains): 2 µM
- percentage of PI-positive cells [2]: 99.0%
- Minimum bactericidal concentration ([3]; E. coli 25922, lowest concentration preventing more than 99.9% growth, 37 °C, 5 h, representative of three trials): 2 µM (≈ 5.69 µg/mL)
- Minimum bactericidal concentration ([4]; E. coli 1005, lowest concentration preventing more than 99.9% growth, 37 °C, 5 h, representative of three trials): 2 µM (≈ 5.69 µg/mL)
- Minimum bactericidal concentration ([5]; S. typhimurium 14028, lowest concentration preventing more than 99.9% growth, 37 °C, 5 h, representative of three trials): 2 µM (≈ 5.69 µg/mL)
- GM (geometric mean of MBCs), Gram (+, −) ([6]; all 6 strains): 2 µM
- Minimum bactericidal concentration ([7]; S. aureus 29213, lowest concentration preventing more than 99.9% growth, 37 °C, 5 h, representative of three trials): 8 µM (≈ 22.8 µg/mL)
- GM (geometric mean of MBCs), Gram (+) ([8]; 3 gram-positive strains): 2 µM

Molecule: AKLWLKA-NH2 [AA1]
- Minimum bactericidal concentration [9]: >128 µM
- Minimum bactericidal concentration ([3]; ATCC 25922, 5 h): >128 µM
- Minimum bactericidal concentration ([4]; UB1005, 5 h): >128 µM
- Minimum bactericidal concentration ([5]; ATCC14028, 5 h): >128 µM
- MHC (minimum hemolytic concentration) [10]: >128 µM
- Minimum bactericidal concentration ([7]; ATCC 29213, 5 h): >128 µM

Molecule: GKLWGLKGKLWGLKGKLWGLK-NH2 [GG3s1]
- TI (therapeutic index), gram-negative [1]: 40.31
- Minimum bactericidal concentration [9]: 128 µM
- Minimum bactericidal concentration ([3]; ATCC 25922, 5 h): 4 µM
- Minimum bactericidal concentration ([4]; UB1005, 5 h): 4 µM
- Minimum bactericidal concentration ([5]; ATCC14028, 5 h): 16 µM
- MHC (minimum hemolytic concentration) [10]: >128 µM
- TI (therapeutic index), all strains [6]: 8.98
- Minimum bactericidal concentration ([7]; ATCC 29213, 5 h): 128 µM
- TI (therapeutic index), gram-positive [8]: 2

Molecule: GKLWLKG-NH2 [GG1]
- Minimum bactericidal concentration [9]: >128 µM
- Minimum bactericidal concentration ([3]; ATCC 25922, 5 h): >128 µM
- Minimum bactericidal concentration ([4]; UB1005, 5 h): >128 µM
- MBC with FeCl3 ([11]; E. coli ATCC 25922, 4 μM FeCl3): >128 µM
- MBC with NH4Cl ([11]; E. coli ATCC 25922, 6 μM NH4Cl): >128 µM
- MBC with ZnCl2 ([11]; E. coli ATCC 25922, 8 μM ZnCl2): >128 µM
- MBC with MgCl2 ([11]; E. coli ATCC 25922, 1 mM MgCl2): >128 µM
- MBC with CaCl2 ([11]; E. coli ATCC 25922, 2 mM CaCl2): >128 µM
- MBC with KCl ([11]; E. coli ATCC 25922, 4.5 mM KCl): >128 µM
- MBC with NaCl ([11]; E. coli ATCC 25922, 150 mM NaCl): >128 µM
- MBC, control ([11]; E. coli ATCC 25922, without physiological salts): >128 µM
- Minimum bactericidal concentration ([5]; ATCC14028, 5 h): >128 µM
- MHC (minimum hemolytic concentration) [10]: >128 µM
- Minimum bactericidal concentration ([7]; ATCC 29213, 5 h): >128 µM

Molecule: GKLWLKGGKLWLKGGKLWLKG-NH2 [GG3]
- TI (therapeutic index), gram-negative [1]: 101.59
- Minimum bactericidal concentration [12]: 32 µM
- MHC (minimum hemolytic concentration) [13]: >128 µM
- Minimum bactericidal concentration [9]: 32 µM
- Minimum bactericidal concentration ([3]; ATCC 25922, 5 h): 2 µM
- Minimum bactericidal concentration ([4]; UB1005, 5 h): 2 µM
- MBC with CaCl2 ([11]; ATCC 25922, 5 h): 2 µM
- MBC with FeCl3 ([11]; ATCC 25922, 5 h): 1 µM
- MBC with KCl ([11]; ATCC 25922, 5 h): 2 µM
- MBC with MgCl2 ([11]; ATCC 25922, 5 h): 2 µM
- MBC with NH4Cl ([11]; ATCC 25922, 5 h): 2 µM
- MBC with NaCl ([11]; ATCC 25922, 5 h): 2 µM
- MBC with ZnCl2 ([11]; ATCC 25922, 5 h): 2 µM
- MBC, control ([11]; ATCC 25922, 5 h): 2 µM
- Minimum bactericidal concentration ([5]; ATCC14028, 5 h): 4 µM
- TI (therapeutic index), all strains [6]: 32
- FIC index in combination with Ceftazidime [14]: 0.75
- FIC index in combination with Chloramphenicol [14]: 1
- FIC index in combination with Ciprofloxacin [14]: 1
- FIC index in combination with Streptomycin [14]: 0.5
- Minimum bactericidal concentration ([7]; ATCC 29213, 5 h): 16 µM
- TI (therapeutic index), gram-positive [8]: 10.08
- MBC with CaCl2 [15]: 16 µM
- MBC with FeCl3 [15]: 16 µM
- MBC with KCl [15]: 8 µM
- MBC with MgCl2 [15]: 16 µM
- MBC with NH4Cl [15]: 16 µM
- MBC with NaCl [15]: 16 µM
- MBC with ZnCl2 [15]: 16 µM
- MBC, control [15]: 16 µM

B1: Gly-rich centrosymmetric peptide GG3 (peptide)
peptide: GKLWLKGGKLWLKGGKLWLKG-NH2
modifications: not fully specified
notes: designed peptide from the template (y+hhh+y)n, three repeats of GKLWLKG; In the FRET experiment, FAM-labeled, TAMRA-labeled and unlabeled GG3 were mixed on lipid vesicles; also called FAM-labeled GG3; TAMRA-labeled GG3; source: synthetic peptide (GL Biochem Corporation, Shanghai)
- binding result [16]: binds
